We go through three compounds from patent publication US20080269231A1, “Phenazine Compounds and Use Thereof in Autoimmune and Inflammatory Disease” (JJ Pharma, Inc., priority 2007, published 2008).

For assay [1], the system named is total serum Ig. The assay is described as follows: Total serum immunoglobulin levels in CIA mice (ELISA). It is filed as in vivo, DBA/1 LacJ mice. Particulars: Prednisolone 10 mg/kg gavaged ×5/week; Formula III 40 mg/kg i.p. ×3/week. The protocol: This study was designed to evaluate the anti-inflammatory and anti-arthritic activity of compound of Formula III using the CIA model by observing changes in immune parameters due to treatment. The animals were administered oral corticosteroid, Enbrel, an injectable TNF inhibitor, and compound of Formula III using both oral and parenteral delivery. Seventy-five DBA/1 LacJ mice 8-10 weeks of age were obtained from Jackson Labs and quarantined in our facility for 10 days prior to experimentation. All mice weighed >16 grams at the start of the experiment. Mice were pre-bled by retro-orbital puncture, and injected with 100 μg Bovine type II collagen in Freund's complete adjuvant (FCA) intradermally at the base of the tail. Mice were monitored by daily examination for the onset of disease. Mice that developed CIA between 20 days post immunization and 42 days post immunization were assigned to one of five treatment groups on a rotational basis (to normalize onset date), and ten mice were assigned to each group. For administration, compound of Formula III was solubilized in sterile saline. […]
Serum Ig levels was assessed using an ELISA assay. […] The plate was read at 405 nm using a Photospectrometer (Molecular Devices), and the data analyzed using the SOFTmax analytical software package. […]

For assay [2], the system named is anti-type II collagen antibody. It is filed as in vivo, DBA/1 LacJ mice. To be noted: after seven weeks of treatment, Prednisolone 10 mg/kg gavaged ×5/week, Formula III 40 mg/kg i.p. ×3/week; for terminal anti-CII antibody levels compared with control mice: p<0.01. The protocol: (§1) This study was designed to evaluate the anti-inflammatory and anti-arthritic activity of compound of Formula III using the CIA model by observing changes in immune parameters due to treatment. The animals were administered oral corticosteroid, Enbrel, an injectable TNF inhibitor, and compound of Formula III using both oral and parenteral delivery. Seventy-five DBA/1 LacJ mice 8-10 weeks of age were obtained from Jackson Labs and quarantined in our facility for 10 days prior to experimentation. All mice weighed >16 grams at the start of the experiment. Mice were pre-bled by retro-orbital puncture, and injected with 100 μg Bovine type II collagen in Freund's complete adjuvant (FCA) intradermally at the base of the tail. Mice were monitored by daily examination for the onset of disease. Mice that developed CIA between 20 days post immunization and 42 days post immunization were assigned to one of five treatment groups on a rotational basis (to normalize onset date), and ten mice were assigned to each group. For administration, compound of Formula III was solubilized in sterile saline. To facilitate drugs delivered by oral administration, carboxymethylcellulose was added to a final concentration of 4% in all gavage solutions. Compounds were administered according to the following schedule: • Group 1. 100 μl sterile saline vehicle injected intraperitoneally (i.p.) ×3/week. • Group 2. 100 μl sterile saline containing compound of Formula III at 40 mg/kg injected i.p. ×3/week. • Group 3. 100 μl sterile saline containing 100 μg Enbrel injected i.p. ×3/week. • Group 4. 100 μl sterile saline containing compound of Formula III at 40 mg/kg gavaged ×5/week. • Group 5. 100 μl sterile saline containing prednisolone 10 mg/kg gavaged ×5/week.
All mice were pre-bled prior to the start of the trial, subsequently at onset of arthritis and at the completion of the trial. Sera were separated and stored at −80° C. ELISA assays were performed to determine anti-type II collagen antibody levels and total immunoglobulin levels.
ELISA plates (Nunc-Immuno plates, Denmark) were coated with 100 μl of coating buffer (0.4M phosphate buffer ph7.6) containing 5 μg of type II collagen, at 4° C. overnight. Plates were washed 3 times with PBS containing 0.05% Tween 20 (Sigma, St. Louis, Mo.) and non specific binding was blocked by PBS containing 5% non fat milk overnight at 4° C. Mouse sera diluted to 1/100 in 5% milk/PBS was added to each well and incubated overnight at 4° C. […] The resulting optical density was measured at 405 nm by using a UV max spectrophotometer (Molecular Devices, CA). […] Antibody binding was expressed as OD405 units-blank.

The test system of assay [3] is Type II collagen-induced arthritis (CIA). The experiment in a line: Collagen-induced arthritis (CIA) mouse model, clinical assessment. It is filed as in vivo, DBA/1 LacJ mice. To be noted: vs saline control mice; for number of involved (arthritic) paws: Formula III 40 mg/kg i.p. ×3/week or gavaged ×5/week, Enbrel 100 μg i.p. ×3/week, prednisolone 10 mg/kg gavaged ×5/week.
From the text: Type II collagen-induced arthritis (CIA) in mice is an accepted experimental model of arthritis with a number of pathological, immunological and genetic features in common with rheumatoid arthritis. This disease is induced by immunization of susceptible strains of mice with type II collagen, the major component of joint cartilage. A progressive, inflammatory arthritis develops in the majority of immunized animals, which is characterized clinically by erythema and edema, with affected paw width increases of typically 100%. A clinical scoring index has been developed to assess disease progression to joint distortion and spondylitis. […] Immunological laboratory findings include high antibody levels to type II collagen and hypergammaglobulinemia.
as §1
Mice were weighed weekly, and overall health status noted. Arthritic animals were clinically assessed by visual inspection five times per week, and paw swelling quantified by caliper measurements made three times per week, until seven weeks after the initial onset of arthritis. All animals were assessed individually from the time of disease onset, and the appropriate findings were entered into clinical report forms.

Assay [4] deals with lymph node cells. The assay is described as follows: Lymph node cell mitogen and antigen proliferative responses (MTT) from treated CIA mice. To be noted: mice treated 40 mg/kg i.p. ×3/week; p<0.05. It is filed as in vivo, DBA/1 LacJ mice. The protocol: This study was designed to evaluate the anti-inflammatory and anti-arthritic activity of compound of Formula III using the CIA model by observing changes in immune parameters due to treatment. The animals were administered oral corticosteroid, Enbrel, an injectable TNF inhibitor, and compound of Formula III using both oral and parenteral delivery. Seventy-five DBA/1 LacJ mice 8-10 weeks of age were obtained from Jackson Labs and quarantined in our facility for 10 days prior to experimentation. All mice weighed >16 grams at the start of the experiment. […] Mice were monitored by daily examination for the onset of disease. […]
Spleen and lymph nodes were removed at sacrifice, and mitogen responses to Con A and LPS, and antigen proliferative responses to type II collagen were determined using standard techniques. […] After incubation at 37° C. overnight, the optical density at 590 nm was read using a microplate photospectrometer (Molecular Devices, CA). The mean and OD values, which provide a measure of cell proliferation, were recorded for each cell sample with respect to antigen stimulation. Antigen specific responses were expressed as (OD590 [Stimulated Culture]−OD590 [Spontaneous proliferation culture])/OD590 [Spontaneous proliferation culture].

The test system of assay [5] is plasma lipoprotein cholesterol and triglyceride. The assay is described as follows: Antilipidemic activity in hamsters fed hypercholesterolemic diet. It is filed as in vivo, Syrian Golden hamsters. To be noted: day 8 of treatment. An excerpt: Eighty-five male Syrian Golden hamsters (F1B strain, BioBreeders, Fitchburg Mass.) approximately 8-10 weeks of age were acclimated to individual hanging polystyrene cages with bedding for 1 week and then fed a semipurified hypercholesterolemic diet (HCD) containing 25% casein, 20% hydrogenated coconut oil, 2% safflower oil, and 0.15% cholesterol by weight for 2 weeks prior to initiation of the experimental treatments (Table 1). Hamsters were then bled (Week 0) following an overnight fast (16 hr) to determine plasma concentrations of total cholesterol, HDL-C, nonHDL-C, and triglycerides and divided into 17 groups (n=5/group) with similar starting plasma HDL-C levels, and administered either compound of Formula II or vehicle once per day for 14 days.
Plasma total cholesterol, HCL-C, nonHDL-C, and triglycerides were then measured at day 8 (prior to gavage that day) and at day 15 (24 hr after last gavage) following and overnight fast (16 hr). Hamsters were maintained in accordance with the guidelines of the Animal Care Committee at the University of Massachusetts-Lowell Research Foundation and the guidelines prepared by the Committee on the Care and Use of Laboratory Animals of the Institute of Laboratory Animal Resources, National Research Council (DHEW publication no 85-23, revised 1985). Hamsters were housed in an environmentally controlled room with an alternating 12-h light/dark cycle and given ad libitum access to food and water except when food is withheld for the experimental protocols.
Blood was collected via the retro-orbital sinus into heparinized tubes from hamsters fasted for 16 h at days 0, 8, and 15. Plasma was harvested after centrifugation at 1500-×g at room temperature for 10 min and plasma total cholesterol and triglyceride concentrations were measured enzymatically. Plasma LDL cholesterol (combination of very low-density, intermediate, and low-density lipoprotein-cholesterol) was precipitated with phosphotungstate reagent and HDL cholesterol was measured in the supernatant. The concentration of LDL cholesterol was calculated as the difference between plasma TC and HDL cholesterol. The accuracy and precision of the procedures used for the measurements of plasma TC and HDL cholesterol were maintained by participation in the Lipid Standardization Program of the Centers for Disease Control and the National Heart, Blood and Lung Institute (Atlanta, Ga.). All reagents used were supplied by Sigma-Aldrich (St. Louis, Mo.). All assays were performed using a Cobas Mira Plus® (Cobas Mira Plus® is a registered trademark of Roche Diagnostic Systems, Inc.) clinical chemistry autoanalyzer using 10 μl of plasma for each sample (Roche Pharmaceuticals, Basel, Switzerland).

Setting [6] is: gavaged ×5/week (Formula III 40 mg/kg; prednisolone 10 mg/kg).
Setting [7] is: injected i.p. ×3/week (Formula III 40 mg/kg; Enbrel 100 μg).

Entries after “also recorded” stand apart in the source; their conditions may differ.

Take `C[C@]12C=CC(=O)C=C1CC[C@@H]1[C@@H]2[C@@H](O)C[C@@]2(C)[C@H]1CC[C@]2(O)C(=O)CO` [Prednisolone, prednisolone, reference compound]: in assay [1], the “reduction of total serum Ig levels at the terminal bleed vs control mice” value is on record as “not significantly different”. In assay [2], the “terminal anti-CII antibody levels compared with titers at disease onset” value was “minor decrease” and the “terminal anti-CII antibody levels compared with control mice” value is “significant reduction”. In addition, the “number of involved (arthritic) paws” value in assay [3] is “significantly lower number of arthritic paws”. The arthritis score entry in assay [3] (setting [6]) is “significant reduction”. Moreover, the arthritis score entry in assay [3] (gavaged ×5/week (Formula III 40 mg/kg; prednisolone 10 mg/kg), listed as prednisolone) is reported as “significantly reduced the arthritis score”.

`COc1cccc2c1[n+]([O-])c1cccc(O)c1[n+]2[O-]` [compound of Formula III]: in assay [4], the “lymph node cell response to LPS” value was “significant reduction”. Further, the “reduction of total serum Ig levels at the terminal bleed vs control mice” value in assay [1] was “not significantly different”. For the same compound, in assay [5] (0.9 mg/kg once per day), the “plasma HDL-C change compared to vehicle control” value (shortened to “plasma HDL-C change”) is on record as −2%, the “plasma nonHDL-C change compared to vehicle control” value (“plasma nonHDL-C change” for short) is listed as −36%, the “plasma total cholesterol change compared to vehicle control” value (shortened to “plasma total cholesterol change”) was −27% and the “plasma triglycerides change compared to vehicle control” value (“plasma triglycerides change” for short) is −37%. For the same compound, in assay [5] (1.8 mg/kg once per day), the “plasma HDL-C change” value is on record as 7%, the “plasma nonHDL-C change” value is recorded as −24%, the “plasma total cholesterol change” value is on record as −17% and the “plasma triglycerides change” value is reported as −14%. Also, in assay [5] (3.6 mg/kg once per day), the “plasma HDL-C change” value was −4%, the “plasma nonHDL-C change” value was −26%, the “plasma total cholesterol change” value is −21% and the “plasma triglycerides change” value was −20%. Further, in assay [2], the “terminal anti-CII antibody levels compared with titers at disease onset” value is listed as “maintenance of titers equivalent to the levels at onset” and the “terminal anti-CII antibody levels compared with control mice” value is “significant reduction”. For the same compound, the “number of involved (arthritic) paws” value in assay [3] is on record as “did not significantly influence the number of involved paws”. Also, in assay [3] (setting [6]), the arthritis score result was “did not exert a statistically significant effect”. For the same compound, in assay [3] (setting [7]), the arthritis score entry was “marked effect; also recorded: significant reduction”.

Regarding Enbrel, the “number of involved (arthritic) paws” value in assay [3] was “significantly lower number of arthritic paws”. Further, the arthritis score result in assay [3] (setting [7]) is on record as “significantly reduced the arthritis score; also recorded: significant reduction”.
